From patent US20230150981A1, “N-HETEROARYLALKYL-2-(HETEROCYCLYL AND HETEROCYCLYLMETHYL) ACETAMIDE DERIVATIVES AS SSTR4 AGONISTS” (Takeda Pharmaceutical Compnay Limited, priority 2020, published 2023)

These compounds were tested against T1, SSTR4 (Homo sapiens, UniProt P31391) (assay: Inhibition of forskolin stimulated cAMP in CHO-K1 cells overexpressing SSTR4). Conditions: read-out: SSTR4 Activity pEC50 (converted).
T1 construct: host or cells: CHO-K1
Type: cell-based
Description: Inhibition of Forskolin Stimulated cAMP in Cells Overexpressing SSTR4
This cell-based assay measures the ability of compounds to inhibit forskolin stimulated cAMP in CHO-K1 cells overexpressing SSTR4. CHO-K1 cells overexpressing SSTR4 (CHO-SSTR4) are purchased from DiscoveRx (product code 95-0059C2). The CHO-SSTR4 cells are maintained in F12K media with 10% Fetal Bovine Serum (Hyclone), 1% Pen/Strep (Life Technologies), and 800 μg/mL G418 (Life Technologies). To perform the assay, 3000 cells are plated per well in white 384-well plate (Corning 3570) in 50 μL complete media and the cells are allowed to attach for 16 hours in a 37° C., 5% CO2 incubator. The next day, the culture media is removed from the cells and the cells are washed (added then removed) with Krebs Ringer Buffer (ZenBio, KRB-1000 mL). Test compounds are suspended in DMSO and diluted in stimulation buffer: Krebs Ringer Buffer plus 0.5% BSA (Roche), 300 μM IBMX (Sigma), and 350 nM forskolin (Sigma). The cells are incubated in 10 μL compound/stimulation buffer for 30 minutes at room temperature. Cellular cAMP levels are detected with a HTRF LANCE Ultra cAMP kit (Perkin Elmer, catalog number TRF0264).
The assay is performed in accordance with the manufacturer's instructions. Five μL of diluted Eu-W8044 labeled streptavidin (dilution: 1:50 in cAMP Detection Buffer) is added to each well. Then 5 μL of diluted biotin cAMP (dilution: 1:150 in cAMP Detection Buffer) is added to each well. The plates are covered and allowed to incubate for 60 minutes at room temperature on a shaker. HTRF (665 nm/615 nm) is read on a Perkin Elmer ENVISION plate reader. The pEC50 values are generated using Activity Base for Screening Data Management.

T1 sequence (P31391 whole entry): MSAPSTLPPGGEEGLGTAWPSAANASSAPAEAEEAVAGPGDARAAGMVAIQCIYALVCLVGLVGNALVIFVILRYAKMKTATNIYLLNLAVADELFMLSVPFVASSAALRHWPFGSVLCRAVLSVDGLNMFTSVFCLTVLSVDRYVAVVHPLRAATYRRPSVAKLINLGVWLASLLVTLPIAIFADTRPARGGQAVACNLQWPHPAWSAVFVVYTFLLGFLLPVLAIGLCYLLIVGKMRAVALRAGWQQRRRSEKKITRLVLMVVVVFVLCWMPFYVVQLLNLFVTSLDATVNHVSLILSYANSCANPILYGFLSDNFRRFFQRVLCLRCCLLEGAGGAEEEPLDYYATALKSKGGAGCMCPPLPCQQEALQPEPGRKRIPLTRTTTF

Compared with `C[C@H](NC(=O)CC1CCCCN1C)c1ccc(F)cc1` (stereo partly drawn) [Example 61, N-((S)-1-(4-fluorophenyl)ethyl)-2-(1-methylpiperidin-2-yl)acetamide], `COc1cc(F)ccc1[C@H](C)NC(=O)C[C@@H]1CCCN1C` [Example 95, N-((S)-1-(4-fluoro-2-methoxyphenyl)ethyl)-2-((S)-1-methylpyrrolidin-2-yl)acetamide] is 5-fold higher in EC50: 158 nM for the first, 794 nM for the second.

First: CCN1CCCC1CC(=O)NC1(COc2ncccc2C)CCC1 (centres unmarked) [Example 64, 2-(1-ethylpyrrolidin-2-yl)-N-(1-(((3-methylpyridin-2-yl)oxy)methyl)cyclobutyl)acetamide]
Second: CCN1CCCC1CC(=O)NC1(COc2ncccc2C)CCCC1 (centres unmarked) [Example 65, 2-(1-ethylpyrrolidin-2-yl)-N-(1-(((3-methylpyridin-2-yl)oxy)methyl)cyclopentyl)acetamide]
The EC50 of the first is 2.5-fold lower: 100 nM for the first, 251 nM for the second.

`Cc1cccnc1OCC(C)(C)NC(=O)CC1CCC(C)N1C` (centres unmarked) [Example 68, 2-(1,5-dimethylpyrrolidin-2-yl)-N-(2-methyl-1-((3-methylpyridin-2-yl)oxy)propan-2-yl)acetamide] and `Cc1cccnc1OCC(C)(C)NC(=O)CC1CCCCN1C` (centres unmarked) [Example 69, N-(2-methyl-1-((3-methylpyridin-2-yl)oxy)propan-2-yl)-2-(1-methylpiperidin-2-yl)acetamide] are the same in EC50: 25.1 nM for the first, 25.1 nM for the second.

`CN1CCC[C@H]1CC(=O)NC(C)(C)COc1ncccc1OC(F)(F)F` [Example 72, (S)-N-(2-methyl-1-((3-(trifluoromethoxy)pyridin-2-yl)oxy)propan-2-yl)-2-(1-methylpyrrolidin-2-yl)acetamide] and `CN1CCC[C@@H]1CC(=O)NC(C)(C)COc1ncccc1OC(F)(F)F` [Example 106, (R)-N-(2-methyl-1-((3-(trifluoromethoxy)pyridin-2-yl)oxy)propan-2-yl)-2-(1-methylpyrrolidin-2-yl)acetamide] are the same in EC50: 20 nM for the first, 20 nM for the second.

Compared with `CN1CCC[C@H]1CC(=O)NC(C)(C)COc1ncccc1C1CC1` [Example 73, (S)-N-(1-((3-cyclopropylpyridin-2-yl)oxy)-2-methylpropan-2-yl)-2-(1-methylpyrrolidin-2-yl)acetamide], `CN1CCC[C@@H]1CC(=O)NC(C)(C)COc1ncccc1C1CC1` [Example 108, (R)-N-(1-((3-cyclopropylpyridin-2-yl)oxy)-2-methylpropan-2-yl)-2-(1-methylpyrrolidin-2-yl)acetamide] is 2-fold lower in EC50: 39.8 nM for the first, 20 nM for the second.

First: COc1ccccc1CC1(NC(=O)CC2CCCCN2C)CC1 (centres unmarked) [Example 74, N-(1-(2-methoxybenzyl)cyclopropyl)-2-(1-methylpiperidin-2-yl)acetamide]
Second: COc1ncccc1CC1(NC(=O)CC2CCCCN2C)CC1 (centres unmarked) [Example 79, N-(1-((2-methoxypyridin-3-yl)methyl)cyclopropyl)-2-(1-methylpiperidin-2-yl)acetamide]
The EC50 of the first is 13-fold lower: 31.6 nM for the first, 398 nM for the second.

First: Cc1cccc(CC2(NC(=O)C[C@@H]3CCCN3C)CC2)c1 [Example 81, (S)-N-(1-(3-methylbenzyl)cyclopropyl)-2-(1-methylpyrrolidin-2-yl)acetamide]
Second: Cc1cccnc1OCC1(NC(=O)C[C@H]2CCCN2C)CC1 [Example 121, (R)-N-(1-(((3-methylpyridin-2-yl)oxy)methyl)cyclopropyl)-2-(1-methylpyrrolidin-2-yl)acetamide]
The EC50 of the first is 1.6-fold lower: 398 nM for the first, 631 nM for the second.

`CN1CCC[C@H]1CC(=O)NC(C)(C)c1cccc(F)c1F` [Example 82, (S)-N-(2-(2,3-difluorophenyl)propan-2-yl)-2-(1-methylpyrrolidin-2-yl)acetamide] and `CN1CCC[C@H]1CC(=O)NC(C)(C)c1cccc(Cl)c1F` [Example 83, (S)-N-(2-(3-chloro-2-fluorophenyl)propan-2-yl)-2-(1-methylpyrrolidin-2-yl)acetamide] are within 1.5-fold of each other in EC50: 316 nM for the first, 251 nM for the second.

Going from `CN1CCC[C@@H]1CC(=O)NC(C)(C)COc1ncccc1C(F)F` [Example 84, (R)-N-(1-((3-(difluoromethyl)pyridin-2-yl)oxy)-2-methylpropan-2-yl)-2-(1-methylpyrrolidin-2-yl)acetamide] to `CN1CCC[C@H]1CC(=O)NC(C)(C)COc1ncccc1C(F)F` [Example 85], the EC50 rises from 100 nM to 200 nM (2-fold).

`Cc1cccc(C(C)(C)NC(=O)C[C@@H]2CCCN2C)c1F` [Example 86, (S)-N-(2-(2-fluoro-3-methylphenyl)propan-2-yl)-2-(1-methylpyrrolidin-2-yl)acetamide] and `Cc1cccc(C(C)(C)NC(=O)C[C@H]2CCCN2C)c1F` [Example 87, (R)-N-(2-(2-fluoro-3-methylphenyl)propan-2-yl)-2-(1-methylpyrrolidin-2-yl)acetamide] are within 1.5-fold of each other in EC50: 251 nM for the first, 316 nM for the second.

Compared with `Cc1c(F)cccc1C(C)(C)NC(=O)C[C@@H]1CCCN1C` [Example 89, (S)-N-(2-(3-fluoro-2-methylphenyl)propan-2-yl)-2-(1-methylpyrrolidin-2-yl)acetamide], `Cc1c(F)cccc1C(C)(C)NC(=O)C[C@H]1CCCN1C` [Example 90, (R)-N-(2-(3-fluoro-2-methylphenyl)propan-2-yl)-2-(1-methylpyrrolidin-2-yl)acetamide] is 2-fold lower in EC50: 126 nM for the first, 63.1 nM for the second.

First: CN1CCC[C@H]1CC(=O)NC(C)(C)c1cccc(F)c1Cl [Example 93, (S)-N-(2-(2-chloro-3-fluorophenyl)propan-2-yl)-2-(1-methylpyrrolidin-2-yl)acetamide]
Second: COc1c(F)cccc1C(C)(C)NC(=O)C[C@@H]1CCCN1C [Example 114, (S)-N-(2-(3-fluoro-2-methoxyphenyl)propan-2-yl)-2-(1-methylpyrrolidin-2-yl)acetamide]
The EC50 of the first is 4-fold lower: 63.1 nM for the first, 251 nM for the second.

Compared with `CN1CCC(F)(F)C1CC(=O)NC(C)(C)c1nccc2ccccc12` (centres unmarked) [Example 97, 2-(3,3-difluoro-1-methylpyrrolidin-2-yl)-N-(2-(isoquinolin-1-yl)propan-2-yl)acetamide], `Cc1cccc2c(C(C)(C)NC(=O)CC3N(C)CCC3(F)F)nccc12` (centres unmarked) [Example 98, 2-(3,3-difluoro-1-methylpyrrolidin-2-yl)-N-(2-(5-methylisoquinolin-1-yl)propan-2-yl)acetamide] is 6.3-fold lower in EC50: 1000 nM for the first, 158 nM for the second.

First: CN1CCC(F)(F)C1CC(=O)NC(C)(C)c1nccc2occc12 (centres unmarked) [Example 99, 2-(3,3-difluoro-1-methylpyrrolidin-2-yl)-N-(2-(furo[3,2-c]pyridin-4-yl)propan-2-yl)acetamide]
Second: CN1CCC[C@H]1CC(=O)NC(C)(C)COc1nccc2ccoc12 [Example 122, (S)-N-(1-(furo[2,3-c]pyridin-7-yloxy)-2-methylpropan-2-yl)-2-(1-methylpyrrolidin-2-yl)acetamide]
The EC50 of the first is 13-fold higher: 3980 nM for the first, 316 nM for the second.

`Cc1ccnc(OCC(C)(C)NC(=O)C[C@@H]2CCCN2C)c1` [Example 102, (S)-N-(2-methyl-1-((4-methylpyridin-2-yl)oxy)propan-2-yl)-2-(1-methylpyrrolidin-2-yl)acetamide] and `Cc1ccc(OCC(C)(C)NC(=O)C[C@@H]2CCCN2C)nc1` [Example 103, (S)-N-(2-methyl-1-((5-methylpyridin-2-yl)oxy)propan-2-yl)-2-(1-methylpyrrolidin-2-yl)acetamide] are within 1.5-fold of each other in EC50: 631 nM for the first, 501 nM for the second.

First: CN1CCC[C@H]1CC(=O)NC(C)(C)COc1cc(Cl)c(F)cn1 [Example 105, (S)-N-(1-((4-chloro-5-fluoropyridin-2-yl)oxy)-2-methylpropan-2-yl)-2-(1-methylpyrrolidin-2-yl)acetamide]
Second: CCOc1cccnc1OCC(C)(C)NC(=O)C[C@H]1CCCN1C [Example 107, (R)-N-(1-((3-ethoxypyridin-2-yl)oxy)-2-methylpropan-2-yl)-2-(1-methylpyrrolidin-2-yl)acetamide]
The EC50 of the first is 4-fold higher: 794 nM for the first, 200 nM for the second.

Compared with `CCOc1cccnc1OCC(C)(C)NC(=O)C[C@@H]1CCCN1C` [Example 109, (S)-N-(1-((3-ethoxypyridin-2-yl)oxy)-2-methylpropan-2-yl)-2-(1-methylpyrrolidin-2-yl)acetamide], `COc1c(Cl)cccc1C(C)(C)NC(=O)C[C@H]1CCCN1C` [Example 113, (R)-N-(2-(3-chloro-2-methoxyphenyl)propan-2-yl)-2-(1-methylpyrrolidin-2-yl)acetamide] is 7.9-fold lower in EC50: 631 nM for the first, 79.4 nM for the second.

First: COc1c(F)cccc1C(C)(C)NC(=O)C[C@H]1CCCN1C [Example 115, (R)-N-(2-(3-fluoro-2-methoxyphenyl)propan-2-yl)-2-(1-methylpyrrolidin-2-yl)acetamide]
Second: COc1c(C)cccc1C(C)(C)NC(=O)C[C@@H]1CCCN1C [Example 116, (S)-N-(2-(2-methoxy-3-methylphenyl)propan-2-yl)-2-(1-methylpyrrolidin-2-yl)acetamide]
The EC50 of the first is 2.5-fold higher: 200 nM for the first, 79.4 nM for the second.

First: COc1c(C)cccc1C(C)(C)NC(=O)C[C@H]1CCCN1C [Example 117, (R)-N-(2-(2-methoxy-3-methylphenyl)propan-2-yl)-2-(1-methylpyrrolidin-2-yl)acetamide]
Second: Cc1cccnc1OCC1(NC(=O)CC2CCCCN2C)CC1 (centres unmarked) [Example 120, 2-(1-methylpiperidin-2-yl)-N-(1-(((3-methylpyridin-2-yl)oxy)methyl)cyclopropyl)acetamide]
The EC50 of the first is 1.6-fold lower: 158 nM for the first, 251 nM for the second.
